Assay results published in patent US20220054493A1, “INHIBITORS OF NGAL PROTEIN” (INSERM (INSTITUT NATIONAL DE LA SANTÉ ET DE LA RECHERCHE …, priority 2019, published 2022).

Legend:
[1] = system: Myocardial Infarction Model; experiment: Profibrotic, IL6 and inflammatory target tissue content in the myocardial infarction model; type: in vivo, mice; conditions: MI model, 100 mg/kg/day in food admix, three months
Description: Total protein aliquots of 20 μg were prepared from cardiac homogenates and electrophoresed on SDS polyacrylamide gels and transferred to Hybond-c Extra nitrocellulose membranes (Amersham Biosciences). Membranes were incubated with primary antibodies for: NGAL (Abcam; dilution 1:500), Collagen type III (Santa Cruz; dilution 1:500), a-SMA (Sigma; dilution 1:1000), CTGF Abcam; dilution 1:500), GDF-15 (Abcam; dilution 1:500), fibronectin (Millipore, 1:500), Galectin-3 (Thermo, 1:1000), Cardiotrophin-1 (Abcam, 1:500), osteopontin (Santa Cruz, 1:1000), cd3 (Abcam, 1:500), cd68 (Abcam, 1:500), cd80 (Santa Cruz, 1:500) and β-actin (Sigma; dilution 1:1000) as a loading control. […] After densitometric analyses, optical density values were expressed as arbitrary units. Results are expressed as an n-fold increase over the values of the control group in densitometric arbitrary units. NGAL, IL6 and collagen type I concentrations were measured in cardiac tissue and cell supernatants, respectively, by ELISA according to the manufacturer's instructions (R&D Systems).

[2] = system: Myocardial Infarction Model; experiment: Cardiac fibrosis and collagen immunostaining in the myocardial infarction model; type: in vivo, mice; conditions: MI model, 100 mg/kg/day in food admix, three months
Excerpt: After assessment of cardiac hemodynamics, the heart was removed, and the atria and the ventricles were separated and weighed individually. A section of the left ventricle was immersed in Bouin fixative solution. After fixation, the sections were dehydrated and embedded in paraffin. From these sections, […] histologic slices were obtained and were stained with Sirius Red. For the measurement of cardiac collagen density, slides were examined and photographed under a light microscope (Zeiss) at 40× magnification. Collagen content was calculated as percentage of collagen area to total area of the image. Perivascular collagen was excluded from the analysis.
Frozen mid-LV sections are thawed at room temperature (30 min), immersed in acetone, rinsed in PBS (1×) and immersed in BSA (10 min each). Slides are then incubated with primary rabbit anti-human collagen-I Ab (Abcam ab 34710) (dilution 1/1000) and primary goat anti-human collagen-III Ab (Rnd NBP1 26547) (dilution 1/500) for 1 hour. Thereafter, slides are rinsed three times in PBS (1×) before being incubated with secondary antibodies donkey […] coupled with FITC (Jackson immunosearch 715-095-151) and donkey anti-goat coupled with Cy3 (Interchim A50-201D3) (dilution 1/400). After three rinses in PBS (1×), slides are mounted with a cover slip on a vecatshield+DAPI medium (Vector Laboratories). A minimum of 8/slide microscopic photographs (×20) were taken from Axiocam-Z1 (Zeiss) fluorescence microscope and analyzed with Image Pro-plus Software. Results are shown as mean±esm.

NGAL = target: T1, NGAL (Homo sapiens, UniProt P80188); experiment: NGAL-induced Col 1 secretion in human cardiac fibroblasts (ELISA); type: cell-based; conditions: FIGS. 1 and 2 panel B
T1 construct: purchased R&D Systems
T1 sequence (P80188 21-198): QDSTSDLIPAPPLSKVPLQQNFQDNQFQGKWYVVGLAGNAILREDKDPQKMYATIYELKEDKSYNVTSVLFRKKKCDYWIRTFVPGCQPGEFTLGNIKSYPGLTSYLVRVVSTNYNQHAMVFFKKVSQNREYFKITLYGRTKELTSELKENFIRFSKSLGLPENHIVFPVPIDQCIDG
Description: Cell Culture Human cardiac fibroblasts (primary culture) were obtained from Promocell and maintained in medium (Fibroblast Media 3). Cells were cultured according to the manufacturer's instructions and used between passages 5 and 7. Cells were stimulated with aldosterone (10^-8 M, Sigma) or recombinant hNGAL (500 ng/mL, R&D Systems) for 24 h for protein analysis. Mouse kidney fibroblasts (MKF), were isolated from Wild Type (WT) mice. Briefly, mice 7 to 8 weeks were sacrificed by cervical dislocation and kidneys were cleaned and rinsed in cold DPBS (Dulbecco's Phosphate-Buffered Saline). The renal cortex was minced and incubated in Dulbecco's modified eagle medium/Nutrient mixture F-12 (DMEM/F12, Sigma) containing 1 mg/mL collagenase A (Roche) during 25 minutes at 37° C. The digestion was inactivated by adding culture medium (DMEM/F12+10% FBS) then the cell suspension was passed through a 100-μm cell strainer. After centrifugation, the pellet (containing MKF) was diluted with culture medium then plated in 75 cm^2 culture flask. […]
NGAL, IL6 and collagen type I concentrations were measured in cardiac tissue and cell supernatants, respectively, by ELISA according to the manufacturer's instructions (R&D Systems).
The inhibitory activity of the compounds was evaluated on the NGAL-induced IL6 secretion (NGAL 10 ng/ml) in human cardiac fibroblasts. […]

CKD Mouse Model = experiment: Blood pressure in the CKD mouse model (subtotal nephrectomy); type: in vivo, mice; conditions: two months administration; FIG. 13
Description: Systolic BP was measured by tail-cuff plethysmography in trained conscious mice at weeks 8-10 using a BP2000 Visitech model. BP was measured every day in the same room at the same hour for 5 consecutive days. The BP measurements (expressed as mmHg) presented are the averages of the last 3 days
Chronic kidney disease (CKD) was induced by subtotal nephrectomy (Nx) in eight-weeks-old FVB male mice (25-26 g). All surgeries were performed under ketamine/xylazine anaesthesia. Briefly, the left kidney was exposed, and the upper and lower poles were tied with a poly-glycolic acid suture line. The peritoneum and skin were then sutured, and the animals were returned to their individual cages. After one week of recovery, the second kidney was removed. Removal of the second kidney represents TO. Sham mice were subjected to the same surgical procedures but neither renal poles nor the right kidney were removed. Mice were monitored for any sign of distress, and those observed to be experiencing severe, unrelievable pain were euthanized. Renal failure was assessed by the measure of plasma creatinine and urea with an automatic analyser (Konelab 20i; Thermo Fisher Scientific, Vernon Hills, Ill.) at weeks 4 and 10 post-Nx.

Col 1 secretion (NGAL-induced) (NGAL): inhibited
SMILES: CC(=O)c1cccc(S(=O)(=O)NCc2ccccc2-n2cccn2)c1 [GPZ614741]
aSMA tissue content ([1]; FIG. 10 panel A): significant prevention of up regulation | GDF15 tissue content ([1]; FIG. 10 panel B): significant prevention of up regulation | CTGF tissue content ([1]; FIG. 10 panel C): significant prevention of up regulation | Col1 tissue content ([1]; FIG. 10 panel D): significant prevention of up regulation | IL6 tissue content ([1]; FIG. 11 panel A): significant prevention of up regulation | CD68 tissue content ([1]; FIG. 12 panel C): significant prevention of up regulation | CD 80 tissue content ([1]; FIG. 12 panel D): significant prevention of up regulation | CD86 tissue content ([1]; FIG. 12 panel E): significant prevention of up regulation | CD3 tissue content ([1]; FIG. 12 panels A, B): significant prevention of up regulation | LV interstitial collagen density ([2]; FIG. 9 panel A): significant decrease | Col I immunostaining ([2]; FIG. 9 panel B): decrease | Col III immunostaining ([2]; FIG. 9 panel C): decrease | increase of blood pressure induced by CKD (CKD Mouse Model): prevented the increase
